Data as given in US6180599A, “Pharmaceutical composition, containing medium-chain fatty acids as active ingredients, for dental caries and periodontal disease” (priority 1997, dated 2001).

Columns and labels:
[1] = test system: S. mutans JC-2; assay: Inhibitory effect on extracellular polysaccharide synthesis, standard strain; type: cell-based, Streptococcus mutans; conditions: 1 mM
Description: (§1) In order to identify the effect by which medium-chain fatty acids inhibit plaque matrix formation, inhibitory effect and concentration of extracellular polysaccharide synthesis were determined in seven kinds of standard cariogenic plaque bacteria. Also, the inhibitory effect of extracellular polysaccharide synthesis for 20 kinds of cariogenic plaque bacteria, separated from the human oral cavity, was measured. Liquid culture media used were: Todd-Hewitt broth of Streptococcus, Lactobacilli MRS broth of Lactobacillus and Brain Heart Infusion broth of Actinomyces. 0.1 ml of bacterial (or cell) suspension (OD600 =0.5) of each bacteria was inoculated to 5.9 ml of culture media containing 1 mM of medium-chain fatty acids and 2% of glucose, and was cultured for 24^~ 48 hours in 10% CO2 incubator. After culturing, the resultant was centrifuged to precipitate at 5,000×g for 15 minutes, then soluble extracellular polysaccharide was separated and purified from the supernatant and insoluble extracellular polysaccharide from the cell pellet, and then these were quantified.

[2] = test system: S. mutans 10449; assay: as above; type: cell-based, Streptococcus mutans; conditions: 1 mM
Description: as §1

[3] = test system: S. mutans BHT; assay: as above; type: cell-based, Streptococcus mutans; conditions: 1 mM
Description: as §1

[4] = test system: S. sanguis 10556; assay: as above; type: cell-based; conditions: 1 mM
Description: as §1

[5] = test system: A. viscosus ATCC 15987; assay: as above; type: cell-based; conditions: 1 mM
Description: as §1

[6] = test system: Streptococcus mutans; assay: Extracellular polysaccharide synthesis in plaque bacteria separated from human oral cavities; type: cell-based; conditions: 1 mM
Description: as §1, with “quantified. So the experimental results that represent inhibitory effect of medium-chain fatty acids upon extracellular polysaccharide synthesis, are shown in table 1, 2, 3 and 4.” for “quantified.”

[7] = Extracellular polysaccharide in liquid medium with fatty acid, no bacteria
Description: as §1

[8] = test system: L. casei ATCC 4646; assay: Inhibitory effect on extracellular polysaccharide synthesis, standard strain; type: cell-based, Lactobacillus casei; conditions: 1 mM
Description: as §1

[9] = test system: L. casei ATCC 27216; assay: as above; type: cell-based, Lactobacillus casei; conditions: 1 mM
Description: as §1

[10] = test system: cariogenic plaque bacteria; assay: Inhibitory effect on extracellular polysaccharide synthesis (summary); type: cell-based, Streptococcus, Lactobacillus and Actinomyces; conditions: 1 mM
Description: as §1, with “quantified. So the experimental results that represent inhibitory effect of medium-chain fatty acids upon extracellular polysaccharide synthesis, are shown in table 1, 2, 3 and 4.” for “quantified.”

[11] = test system: cariogenic plaque bacteria (standard strains); assay: Inhibitory effect of acid production, standard strains; type: cell-based, Streptococcus, Lactobacillus and Actinomyces; conditions: for inhibitory effect of acid production (in words): 0.5-8 mM, pH 5.0 and 7.0, 24-48 hours
Description: In order to identify the action by which medium-chain fatty acids inhibit acid production, the inhibitory effect and concentration of acid production were determined in seven kinds of standard cariogenic plaque bacteria. Also, the inhibitory effect of acid production for 20 kinds of cariogenic plaque bacteria, separated from the human oral cavity, was assayed. Liquid culture media used were: Todd-Hewitt broth of Streptococcus, Lactobacilli MRS broth of Lactobacillus and Brain Heart Infusion broth of Actinomyces. […] The final pH of the culture medium was measured after culturing for 24^~ 48 hours in 10% CO2 incubator.

[12] = test system: cariogenic plaque bacteria (standard strains); assay: Inhibitory effect of bacterial growth, standard strains; type: cell-based, Streptococcus, Lactobacillus and Actinomyces
Description: In order to evaluate how medium-chain fatty acids influence bacterial growth of cariogenic plaque bacteria, the influence on each bacteria was evaluated after selecting seven kinds of bacterial strains as standard bacteria among cariogenic plaque bacteria. […] The results that medium-chain fatty acids have on influencing bacterial growth of cariogenic plaque bacteria is shown in FIG. 3. And the result of measuring inhibitory effect of bacterial growth of 20 kinds of cariogenic plaque bacteria separated from the human oral cavities is shown in FIG. 4.

With `CCCCCCCCCCCC(=O)[O-].[Na+]` [C12, sodium laurate] the “Extracellular polysaccharide, insoluble” value ([1]; 2% glucose, 24-48 hours, control 1.1 ± 0.2) was 0.1 ± 0.1 µg/mL, the “Extracellular polysaccharide, soluble” value ([1]; 2% glucose, 24-48 hours, control 34.4 ± 3.9) was 0.6 ± 0.5 µg/mL and the “Inhibitory rate, soluble” value ([1]; vs control) was 98%. The “Extracellular polysaccharide, insoluble” value ([2]; 2% glucose, 24-48 hours, control 0.8 ± 0.3) was 0.2 ± 0.1 µg/mL, the “Extracellular polysaccharide, soluble” value ([2]; 2% glucose, 24-48 hours, control 74.6 ± 1.8) was 15.5 ± 3.8 µg/mL and the “Inhibitory rate, soluble” value ([2]; vs control) was 79%. The “Extracellular polysaccharide, soluble” value ([3]; 2% glucose, 24-48 hours, control 31.5 ± 3.7) was 4.1 ± 0.8 µg/mL, the “Inhibitory rate, soluble” value ([3]; vs control) was 87% and the “Extracellular polysaccharide, soluble” value ([4]; 2% glucose, 24-48 hours, control 25.9 ± 4.3) was 12.2 ± 0.9 µg/mL. The “Inhibitory rate, soluble” value ([4]; vs control) was 53%, the “Extracellular polysaccharide, insoluble” value ([5]; 2% glucose, 24-48 hours, control 2.1 ± 0.2) was 0.2 ± 0.1 µg/mL and the “Extracellular polysaccharide, soluble” value ([5]; 2% glucose, 24-48 hours, control 222.8 ± 3.3) was 25.3 ± 1.7 µg/mL. The “Inhibitory rate, soluble” value ([5]; vs control) was 89%, the Inhibitory rate ([6]; isolate XI) was 70% and the Soluble extracellular polysaccharide ([6]; isolate XI, control 95.2 ± 8.3) was 28.6 ± 3.5 µg/mL. For the same molecule, the Inhibitory rate ([6]; isolate XII) was 58%, the Soluble extracellular polysaccharide ([6]; isolate XII, control 84.2 ± 8.6) was 35.2 ± 5.0 µg/mL and the Inhibitory rate ([6]; isolate XIII) was 69%. The Soluble extracellular polysaccharide ([6]; isolate XIII, control 90.5 ± 8.3) was 27.7 ± 3.3 µg/mL, the Inhibitory rate ([6]; isolate XIV) was 53% and the Soluble extracellular polysaccharide ([6]; isolate XIV, control 90.5 ± 2.9) was 42.6 ± 1.0 µg/mL. For the same molecule, the Inhibitory rate ([6]; isolate XIX) was 70%, the Soluble extracellular polysaccharide ([6]; isolate XIX, control 113.7 ± 6.8) was 34.3 ± 3.3 µg/mL and the Inhibitory rate ([6]; isolate XV) was 62%. The Soluble extracellular polysaccharide ([6]; isolate XV, control 117.9 ± 4.6) was 44.5 ± 1.7 µg/mL, the Inhibitory rate ([6]; isolate XVI) was 66% and the Soluble extracellular polysaccharide ([6]; isolate XVI, control 143.2 ± 11.1) was 48.2 ± 4.5 µg/mL. For the same molecule, the Inhibitory rate ([6]; isolate XVII) was 67%, the Soluble extracellular polysaccharide ([6]; isolate XVII, control 107.8 ± 17.0) was 35.4 ± 2.1 µg/mL and the Inhibitory rate ([6]; isolate XVIII) was 59%. The Soluble extracellular polysaccharide ([6]; isolate XVIII, control 98.5 ± 9.0) was 40.5 ± 1.7 µg/mL, the “Extracellular polysaccharide, soluble” value ([7]; Table 1, 1 mM) was 1.4 ± 0.1 µg/mL and the “Extracellular polysaccharide, soluble” value ([7]; Table 2, 1 mM) was 4.6 ± 1.3 µg/mL. For the same molecule, the “Extracellular polysaccharide, soluble” value ([7]; Table 3, 1 mM) was 4.4 ± 0.2 µg/mL, the “Extracellular polysaccharide, insoluble” value ([8]; 2% glucose, 24-48 hours, control 5.3 ± 0.5) was 0.2 ± 0.2 µg/mL and the “Extracellular polysaccharide, soluble” value ([8]; 2% glucose, 24-48 hours, control 43.6 ± 7.0) was 19.2 ± 2.9 µg/mL. For the same molecule, the “Inhibitory rate, soluble” value ([8]; vs control) was 56%, the “Extracellular polysaccharide, insoluble” value ([9]; 2% glucose, 24-48 hours, control 5.9 ± 0.4) was 2.0 ± 0.1 µg/mL and the “Extracellular polysaccharide, soluble” value ([9]; 2% glucose, 24-48 hours, control 67.3 ± 4.5) was 19.0 ± 2.1 µg/mL. For the same molecule, the “Inhibitory rate, soluble” value ([9]; vs control) was 72%, the “inhibitory effect of extracellular polysaccharide synthesis (in words)” value [10] was “inhibited in the highest degree” and the “inhibitory effect of extracellular polysaccharide synthesis, sequence” value ([10]; ranking) was “sodium laurate>sodium capriate>sodium nonanoate”. The “inhibitory effect of acid production (in words)” value [11] was “excellent inhibitory effect of acid production even at low concentration of 1 mM”, the “inhibitory effect of acid production (in words)” value ([11]; listed as salt form of lauric acid) was “almost completely inhibits the acid production ability” and the “inhibitory effect of acid production in acidic conditions (in words)” value ([11]; acidic conditions, FIG. 1) was “significant effect of acid production in acidic conditions”. The “inhibitory effect of acid production, sequence” value ([11]; ranking, FIG. 1) was “sodium laurate>sodium capriate>sodium nonanoate”, the “inhibitory effect of bacterial growth (in words)” value ([12]; 0.5-8 mM, pH 5.0 and 7.0, OD 600 nm, 24-48 hours) was “almost completely inhibits” and the “inhibitory effect of bacterial growth, sequence” value ([12]; ranking, FIG. 3) was “sodium laurate>sodium capriate>sodium nonanoate”.
